Patent US20260015333A1, “COMPOUNDS AND METHODS FOR INHIBITION OF THE EVOLUTION OF […]” (priority 2022, published 2026)

Target: T1, E. coli RNAP (Escherichia coli, UniProt P0A7Z4+P0A800+P0A8T7+P0A8V2)
T1 construct: purchased NEB
Experiment: RNAP displacement assay, control reactions in the absence of Mfd
Assay type: biochemical
Settings: RNAP with 12.5 μM ARM-1, no Mfd
Description: FIGS. 2A-2D depict how ARM-1 affects Mfd's biochemical activity. FIG. 2A depicts how the kd of ARM-1 was determined using microscale thermophoresis. Data shown represent a minimum of three independent experiments. FIG. 2B depicts a NADH-coupled ATPase assay. ATP hydrolysis by Mfd was coupled to NADH oxidation. Phosphoenolpyruvate is converted to pyruvate by pyruvate kinase, transferring a phosphate group onto ADP, which is only present in the reaction following ATP hydrolysis by Mfd. Pyruvate is then converted to lactate by lactate dehydrogenase, oxidizing NADH to NAD^+. Absorbance at 340 nm by NADH is used to monitor the reaction. Data shown represent a minimum of 3 biological replicates. FIG. 2C depicts a transcription roadblock assay. A P32-labled 176 bp PCR fragment was incubated with E. coli RNAP along with saturating concentrations of ATP, GTP, and UTP. 100 nM S. typhimurium ST19 Mfd preincubated with indicated concentrations of ARM-1 was added and the reaction allowed to proceed for 6 minutes. DNA products were then resolved on a polyacrylamide gel and analyzed by phosphorimaging. […] Quantification of these gels is shown below each lane. […]
Mfd translocates along double-stranded DNA and dislodges stalled RNAP complexes. […] When quantified, a ratio of EC to IC of approximately 1 was observed, which was consistent with prior work. […]

T1 sequence (P0A7Z4 whole entry): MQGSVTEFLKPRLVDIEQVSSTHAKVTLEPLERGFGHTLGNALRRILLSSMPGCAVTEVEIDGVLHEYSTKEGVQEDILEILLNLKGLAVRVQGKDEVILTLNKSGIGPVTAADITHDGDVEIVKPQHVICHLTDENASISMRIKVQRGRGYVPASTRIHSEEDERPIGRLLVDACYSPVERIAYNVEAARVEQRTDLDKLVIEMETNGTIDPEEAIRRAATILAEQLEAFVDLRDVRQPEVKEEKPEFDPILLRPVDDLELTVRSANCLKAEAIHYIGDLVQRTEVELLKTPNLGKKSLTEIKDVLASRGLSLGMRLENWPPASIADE
T1 sequence (P0A8V2 whole entry): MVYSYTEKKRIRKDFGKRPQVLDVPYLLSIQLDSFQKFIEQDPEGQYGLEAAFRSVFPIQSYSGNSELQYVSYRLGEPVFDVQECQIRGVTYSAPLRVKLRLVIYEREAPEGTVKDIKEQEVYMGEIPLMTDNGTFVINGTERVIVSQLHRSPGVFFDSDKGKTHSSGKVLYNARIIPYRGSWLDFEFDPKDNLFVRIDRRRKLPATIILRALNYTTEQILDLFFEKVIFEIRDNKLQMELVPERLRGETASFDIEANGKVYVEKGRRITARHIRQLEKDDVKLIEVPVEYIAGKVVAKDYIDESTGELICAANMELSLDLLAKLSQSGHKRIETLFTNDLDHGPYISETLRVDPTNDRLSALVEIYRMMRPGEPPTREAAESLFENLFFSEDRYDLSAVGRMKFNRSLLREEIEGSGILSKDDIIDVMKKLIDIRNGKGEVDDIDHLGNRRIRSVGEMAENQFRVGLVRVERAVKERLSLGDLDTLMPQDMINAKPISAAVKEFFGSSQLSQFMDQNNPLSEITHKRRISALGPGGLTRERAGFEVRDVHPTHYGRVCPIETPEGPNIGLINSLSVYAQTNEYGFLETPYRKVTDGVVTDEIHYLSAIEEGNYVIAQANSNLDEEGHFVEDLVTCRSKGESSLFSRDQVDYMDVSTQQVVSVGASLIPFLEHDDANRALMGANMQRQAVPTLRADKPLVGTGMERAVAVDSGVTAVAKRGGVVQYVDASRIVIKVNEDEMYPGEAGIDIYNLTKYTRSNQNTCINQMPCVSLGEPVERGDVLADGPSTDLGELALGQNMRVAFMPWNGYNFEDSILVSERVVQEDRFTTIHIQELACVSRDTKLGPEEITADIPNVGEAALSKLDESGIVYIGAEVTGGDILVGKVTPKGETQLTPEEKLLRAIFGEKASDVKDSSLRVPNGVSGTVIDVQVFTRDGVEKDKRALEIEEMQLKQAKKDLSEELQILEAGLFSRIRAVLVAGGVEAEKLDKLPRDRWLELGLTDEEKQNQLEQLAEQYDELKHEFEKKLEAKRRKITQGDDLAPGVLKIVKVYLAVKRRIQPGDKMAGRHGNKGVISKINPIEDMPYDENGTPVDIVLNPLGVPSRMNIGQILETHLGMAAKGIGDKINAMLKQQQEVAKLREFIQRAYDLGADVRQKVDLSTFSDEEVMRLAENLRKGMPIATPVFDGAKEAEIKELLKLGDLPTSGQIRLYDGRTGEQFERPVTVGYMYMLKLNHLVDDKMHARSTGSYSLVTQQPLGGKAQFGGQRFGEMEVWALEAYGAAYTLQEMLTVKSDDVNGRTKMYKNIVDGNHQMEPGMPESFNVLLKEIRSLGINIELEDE
T1 sequence (P0A800 2-91): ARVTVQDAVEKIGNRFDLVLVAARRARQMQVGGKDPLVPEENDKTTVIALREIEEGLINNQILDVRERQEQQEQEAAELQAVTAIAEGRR
T1 sequence (P0A8T7 whole entry): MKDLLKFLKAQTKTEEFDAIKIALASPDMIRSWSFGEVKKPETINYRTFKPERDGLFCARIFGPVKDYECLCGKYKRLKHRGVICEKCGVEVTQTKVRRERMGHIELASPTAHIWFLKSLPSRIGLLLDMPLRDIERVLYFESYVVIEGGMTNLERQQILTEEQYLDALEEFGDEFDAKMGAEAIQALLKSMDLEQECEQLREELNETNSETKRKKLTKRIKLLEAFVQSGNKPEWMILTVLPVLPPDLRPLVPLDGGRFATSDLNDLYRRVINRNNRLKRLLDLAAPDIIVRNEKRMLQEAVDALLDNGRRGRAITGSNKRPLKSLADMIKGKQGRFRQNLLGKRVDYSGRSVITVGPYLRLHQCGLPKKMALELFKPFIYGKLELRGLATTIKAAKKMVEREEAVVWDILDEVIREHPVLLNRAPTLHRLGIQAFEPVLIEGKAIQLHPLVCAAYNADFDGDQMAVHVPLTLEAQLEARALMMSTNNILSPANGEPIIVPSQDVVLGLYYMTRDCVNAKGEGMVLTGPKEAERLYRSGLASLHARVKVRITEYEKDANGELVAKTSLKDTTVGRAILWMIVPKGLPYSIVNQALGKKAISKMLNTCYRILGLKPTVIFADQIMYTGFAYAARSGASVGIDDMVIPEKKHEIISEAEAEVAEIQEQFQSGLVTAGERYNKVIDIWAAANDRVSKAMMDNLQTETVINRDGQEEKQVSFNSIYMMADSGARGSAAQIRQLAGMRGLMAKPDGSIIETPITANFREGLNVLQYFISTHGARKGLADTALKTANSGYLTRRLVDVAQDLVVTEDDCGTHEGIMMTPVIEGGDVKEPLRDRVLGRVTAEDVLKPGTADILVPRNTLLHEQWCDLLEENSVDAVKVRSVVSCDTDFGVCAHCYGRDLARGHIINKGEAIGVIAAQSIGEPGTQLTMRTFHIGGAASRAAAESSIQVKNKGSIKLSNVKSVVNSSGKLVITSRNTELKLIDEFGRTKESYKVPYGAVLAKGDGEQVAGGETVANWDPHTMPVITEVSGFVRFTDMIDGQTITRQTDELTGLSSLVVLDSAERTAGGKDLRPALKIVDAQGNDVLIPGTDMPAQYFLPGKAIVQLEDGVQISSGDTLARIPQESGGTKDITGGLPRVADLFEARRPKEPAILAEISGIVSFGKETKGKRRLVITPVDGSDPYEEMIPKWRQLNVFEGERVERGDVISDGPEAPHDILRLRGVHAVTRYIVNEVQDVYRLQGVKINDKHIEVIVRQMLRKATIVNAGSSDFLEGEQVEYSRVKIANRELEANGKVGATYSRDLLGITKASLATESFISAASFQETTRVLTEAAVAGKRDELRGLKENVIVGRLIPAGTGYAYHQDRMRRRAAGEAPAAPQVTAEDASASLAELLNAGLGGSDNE

Cc1cc(Br)ccc1-c1ccc(CNCCCN(C)C)o1 [ARM-1, N^1-((5-(4-bromo-2-methylphenyl)furan-2-yl)methyl)-N^3,N^3-dimethylpropane-1,3-diamine]
changes on RNAP complexes in the absence of Mfd: did not have any detectable changes
